We go through three compounds from BindingDB's records for patent US20240116922 (Biogen Ma, 2024).

Structures are written as SMILES.

The experiment has as its target T1, Interleukin-1 receptor-associated kinase 4 (Homo sapiens, UniProt Q9NWZ3).
T1 sequence (Q9NWZ3 whole entry): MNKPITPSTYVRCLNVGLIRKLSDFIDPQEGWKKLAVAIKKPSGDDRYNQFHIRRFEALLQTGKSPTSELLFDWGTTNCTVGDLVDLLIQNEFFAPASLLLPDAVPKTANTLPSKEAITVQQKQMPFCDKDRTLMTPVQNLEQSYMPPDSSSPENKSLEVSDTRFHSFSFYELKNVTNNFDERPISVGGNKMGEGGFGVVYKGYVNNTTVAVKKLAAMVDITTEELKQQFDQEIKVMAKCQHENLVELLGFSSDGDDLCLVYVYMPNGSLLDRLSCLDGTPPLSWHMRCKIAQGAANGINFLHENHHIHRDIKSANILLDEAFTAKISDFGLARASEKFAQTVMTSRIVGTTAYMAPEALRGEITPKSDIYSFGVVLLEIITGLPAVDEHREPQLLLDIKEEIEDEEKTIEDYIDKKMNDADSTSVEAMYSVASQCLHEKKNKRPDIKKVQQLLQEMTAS
Kind of experiment: Biochemical Assay.

Procedure: The 2-hour 1 mM ATP Biochemical Assay employed a MesoScale Detection (MSD) format. […] After a 1 hour incubation of the plate for 1 hour at room temperature with gentle mixing, the plate wells were washed 3 times with 50 mM Tris, pH 7.5, 150 mM NaCl, 0.02% Tween-20.A 25 μl volume of 1:500 anti-P-Threonine Rabbit polyclonal Antibody plus 1:500 Goat-anti-Rabbit Sulfo Tag Antibody (Meso Scale Discovery R32AB-1) in 50 mM Tris, pH 7.5, 150 mM NaCl, 0.02% Tween-20 plus 2% BSA was then added to each well. After a 1-hour incubation of the plate for 1 hour at room temperature with gentle mixing, the plate wells were washed, 3 times with 50 mM Tris, pH 7.5, 150 mM NaCl, 0.02% Tween-20.

Compound `CC(C)Oc1cc2nc(C34COC(C)(C3)C4)cn2cc1C(=O)Nc1ccnn(C2CC2)c1=O` [US20240116922, Example 76] came in with an IC50 of 1.6 nM. `CC[C@H](C)Oc1cc2nc(C34COC(C)(C3)C4)cn2cc1C(=O)Nc1cccn([C@@H]2C[C@@H]2F)c1=O` (mixture of isomers) [US20240116922, Example 96] had an IC50 of 0.2 nM. Turning to `CC[C@H](C)Oc1nc2nc(C34COC(C)(C3)C4)cn2cc1C(=O)Nc1cccn([C@@H]2C[C@@H]2F)c1=O` (mixture of isomers) [US20240116922, Example 42], it took 0.3 nM to reach half-maximal inhibition (IC50).

Broadly, the IC50 is the concentration at which inhibition is half-maximal.
